Results as given in publication PMC7933434, “Entropy-driven binding of gut bacterial β-glucuronidase inhibitors ameliorates irinotecan-induced toxicity” (Communications Biology, 2021).

Experiments:
[1] = tested on: intestinal bacterial GUSs; experiment: In vivo imaging of GUS activity (FDGiCu probe); parameters: species or system mouse; settings: BALB/c mice; oral gavage of inhibitor, then 500 µg FDGiCu intravenously
Experimental: . […] The mice were then sacrificed and the intestines removed. […] In addition, we performed real-time in vivo gastrointestinal inhibition of bacterial GUSs using whole-body in vivo imaging (Fig. 4a and Supplementary Figs. 11, 12). The mice were gavaged in the same manner as described above. Following the final gavage, 500 µg of FDGiCu (fluorescein-di-β-D-glucuronide as a non-fluorescent probe) was injected intravenously. Upon digestion by intestinal bacterial GUSs, FDGiCu is hydrolyzed to produce fluorescein (as the hydrolyzed product) that can be detected as fluorescence in the intestinal region. […]. Mice were treated for 10 days. […]
Mice were given 3 via oral gavage. […] The hydrolysis product (fluorescein) generated in the gut was quantified over a 2 h period by in vivo imaging (excitation 465 nm, emission 520 nm). The maximum fluorescein fluorescence was observed 60 min after injection of vehicle control. At 2 h post injection, most of the FDGiCu has been excreted and thus fluorescence is reduced. The region of interest (ROI) was analyzed with Living Image Software. b Effect of inhibitor 3 to protect against diarrhea caused by CPT-11. Diarrhea severity was scored as described in methods. […] The intensity of hydrolyzed fluorescein was assessed by in vivo imaging system (Caliper Life Sciences) and quantified as GUS activity. […]

BALB/c mice = experiment: Colon histology (hematoxylin and eosin) after oral gavage; type: in vivo, mouse; settings: female BALB/c mice; oral gavage for 5 days; 3 at 37.5 mg per kg body weight, ASN03273363 at 65 mg

SMILES: CCCCCC[C@@H]1NC[C@@H](O)[C@H](O)[C@H]1C(=O)O [Inhibitor 3, C6-hexyl UIFG]
- fluorescein fluorescence in the intestinal region (gut bacterial GUS activity) [1]: Reduced fluorescence
- health of the epithelial layer and intestinal glandular structure (hematoxylin and eosin staining) (BALB/c mice): neither compound affected the health of the epithelial layer or the intestinal glandular structure
